# Results as given in patent US20240417405A1, “Substituted Spiro Derivatives” (Janssen Pharmaceutica NV, priority 2021, published 2024).
# Like-named read-outs stand apart in the source and are kept apart here.
# Columns and labels:
# [1] = test system: KO-52 cells; test: Proliferation assay, spheroid-like growth, KO-52 (MLL wildtype control cell line); format: cell-based, human; settings: KO-52 control cells, 8 days, confluence as measure of spheroid size, read-out: spheroid assay_OneTime KO-52 IC50
# Method: The anti-proliferative effect of menin/MLL protein/protein interaction inhibitor test compounds was assessed in human leukemia cell lines. The cell line MOLM14 harbors a MLL translocation and expresses the MLL fusion proteins MLL-AF9, respectively, as well as the wildtype protein from the second allele. […] KO-52 was used as a control cell line containing two MLL (KMT2A) wildtype alleles in order to exclude compounds that display general cytotoxic effects.
# MOLM14 cells were cultured in RPMI-1640 (Sigma Aldrich) supplemented with 10% heat-inactivated fetal bovine serum (HyClone), 2 mM L-glutamine (Sigma Aldrich) and 50 μg/ml gentamycin (Gibco). KO-52 cell lines were propagated in alpha-MEM (Sigma Aldrich) supplemented with 20% heat-inactivated fetal bovine serum (HyClone), 2 mM L-glutamine (Sigma Aldrich) and 50 μg/ml gentamycin (Gibco).
# In order to assess the anti-proliferative effects, 200 MOLM14 cells, or 300 KO-52 cells were seeded in 200 μl media per well in 96-well round bottom, ultra-low attachment plates (Costar, catalogue number 7007). Cell seeding numbers were chosen based on growth curves to ensure linear growth throughout the experiment. Test compounds were added at different concentrations and the DMSO content was normalized to 0.3%. Cells were incubated for 8 days at 37° C. and 5% CO2. Spheroid like growth was measured in real-time by live-cell imaging (IncuCyteZOOM, Essenbio, 4× objective) acquiring images at day 8. Confluence (%) as a measure of spheroid size was determined using an integrated analysis tool.
# In order to determine the effect of the test compounds over time, the confluence in each well as a measure of spheroid size, was calculated. Confluence of the highest dose of a reference compound was used as baseline for the LC (Low control) and the confluence of DMSO treated cells was used as 0% cytotoxicity (High Control, HC).
# Absolute IC50 values were calculated as percent change in confluence as follows:
# LC=Low Control: cells treated with e.g. 1 μM of the cytotoxic agent staurosporin, or e.g. cells treated with a high concentration of an alternative reference compound
# GraphPad Prism (version 7.00) was used to calculate the IC50. Dose-response equation was used for the plot of % Effect vs Log 10 compound concentration with a variable slope and fixing the maximum to 100% and the minimum to 0%.
# [2] = biological target: T1, menin/MLL (terbium chelate-labeled menin, FITC-MBM1 peptide) (Homo sapiens, UniProt O00255, T541A); test: Menin/MLL homogenous time-resolved fluorescence (HTRF) assay; format: binding; settings: 30 min incubation
# T1 construct: Menin (a.a 1-610-6xhis tag)
# T1 sequence (O00255 with tags, fused parts or gaps T541A): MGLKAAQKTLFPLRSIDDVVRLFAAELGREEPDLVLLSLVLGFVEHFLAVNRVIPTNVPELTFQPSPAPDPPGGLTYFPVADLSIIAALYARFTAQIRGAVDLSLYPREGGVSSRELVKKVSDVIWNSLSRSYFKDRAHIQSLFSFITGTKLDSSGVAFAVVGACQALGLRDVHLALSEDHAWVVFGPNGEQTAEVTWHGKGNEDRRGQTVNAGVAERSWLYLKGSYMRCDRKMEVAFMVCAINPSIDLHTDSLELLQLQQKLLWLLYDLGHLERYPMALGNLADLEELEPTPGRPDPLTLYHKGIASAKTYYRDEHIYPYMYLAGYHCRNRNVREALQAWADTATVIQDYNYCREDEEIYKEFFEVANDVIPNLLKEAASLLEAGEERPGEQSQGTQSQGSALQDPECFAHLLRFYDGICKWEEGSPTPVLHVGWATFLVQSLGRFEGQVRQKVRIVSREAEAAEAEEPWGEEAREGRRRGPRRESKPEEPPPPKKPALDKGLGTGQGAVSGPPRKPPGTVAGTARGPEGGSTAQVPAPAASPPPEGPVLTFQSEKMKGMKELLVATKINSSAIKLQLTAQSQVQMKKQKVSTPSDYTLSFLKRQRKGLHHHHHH
# Summary of the method: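 Percent inhibition, calculated from the 520/490 nm HTRF ratio against high and low controls, was fitted for IC50 with a 0.1 nM detection limit. Reactions held 200 pM Tb-menin and 75 nM FITC-MBM1 in pH 7.5 Tris buffer with 0.5% DMSO.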
# [3] = test system: MOLM14 cells; test: Proliferation assay, spheroid-like growth, MOLM14 (MLL-AF9 rearranged); format: cell-based, human; settings: 8 days, confluence as measure of spheroid size, read-out: spheroid assay_OneTime MOLM14 IC50
# Summary of the method: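 Seed cells at linear-growth densities in low-attachment wells; add test compound at several concentrations, normalized to 0.3% DMSO; incubate 8 days at 37 °C; image spheroids and measure confluence; calculate absolute IC50 against DMSO and reference-compound controls.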
SMILES,IC50 [2],"IC50 ([3]; Homo sapiens, MOLM-14, 192 h)",IC50 [3],"IC50 ([1]; Homo sapiens, 192 h)",IC50 [1]
COC1(C)CCN([C@H]2C[C@H]([C@H](C(C)C)N3CC4(CCN(c5ncnnc5Oc5ccc(F)cc5-c5nnccc5C5CC5)C4)C3)C2)C1 (mixture of isomers) [Compound 276],0.8 nM,82 nM,,> 15 µM,
"CC(C)C([C@H]1C[C@@H](N)C1)N1CC2(CCN(c3ncnnc3Oc3ccc(F)cc3-c3cncnc3C3CC3)C2)C1 (single isomer, unassigned) [Compound 1a]",0.1 nM,,20 nM,> 15 µM,
"CC(C)C([C@H]1C[C@@H](N)C1)N1CC2(CCN(c3ncnnc3Oc3ccc(F)cc3-c3cncnc3C3CC3)C2)C1 (single isomer, unassigned) [Compound 1b]",0.4 nM,,200 nM,,> 15 µM
"CC(=O)NC1CC(C(C(C)C)N2CC3(CCN(c4ncnnc4Oc4ccc(F)cc4-c4cncnc4C4CC4)C3)C2)C1 (single isomer, unassigned) [Compound 2b]",16.6 nM,,1310 nM,,> 15 µM
"CC(C)[C@H](C1CCN(CC2(O)CC2)CC1)N1CC2(CCN(c3ncnnc3Oc3ccc(F)cc3-c3cncnc3C3CC3)C2)C1 (single isomer, unassigned) [Compound 4]",0.3 nM,66 nM,,7.73 µM,
"CC(C)[C@H]([C@H]1C[C@@H](NC(=O)C2CC2)C1)N1CC2(CCN(c3ncnnc3Oc3ccc(F)cc3-c3cccc(=O)n3C3CC3)C2)C1 (single isomer, unassigned) [Compound 190]",,76 nM,,14.8 µM,
"CC(C)[C@@H]([C@H]1C[C@@H](NC(=O)C2CC2)C1)N1CC2(CCN(c3ncnnc3Oc3ccc(F)cc3-c3cccc(=O)n3C3CC3)C2)C1 (single isomer, unassigned) [Compound 191]",,> 940 nM,,> 15 µM,
CC(C)C([C@H]1C[C@H](N2CCC(C)(O)CC2)C1)N1CC2(CCN(c3ncnnc3Oc3ccc(F)cc3-c3cncnc3C3CC3)C2)C1 (stereo partly drawn) [Compound 130],,120 nM,,> 15 µM,
CC(C)C([C@H]1C[C@H](NCC(C)(C)O)C1)N1CC2(CCN(c3ncnnc3Oc3ccc(F)cc3-c3cncnc3C3CC3)C2)C1 (stereo partly drawn) [Compound 134],,130 nM,,13.2 µM,
CC(C)C([C@H]1C[C@H](N2CC3(COC3)C2)C1)N1CC2(CCN(c3ncnnc3Oc3ccc(F)cc3-c3ncc(C#N)cc3C3CC3)C2)C1 (stereo partly drawn) [Compound 141],,260 nM,,12.4 µM,
Fc1ccc(Oc2nncnc2N2CCC3(C2)CN(C(C2CCN(CC4COC4)CC2)C24CC(C2)C4)C3)c(-c2nnccc2C2CC2)c1 (stereo not drawn) [Compound 340],,170 nM,,11.4 µM,
Cc1cc(C2CC2)c(-c2cc(F)ccc2Oc2nncnc2N2CCC3(C2)CN([C@@H](C(C)C)[C@H]2C[C@H](N4C[C@@H]5[C@H](C4)[C@H]5C(=O)N(C)C)C2)C3)nn1 [Compound 401],0.52 nM,260 nM,,,
CO[C@H]1[C@@H]2CN([C@H]3C[C@H]([C@H](C(C)C)N4CC5(CCN(c6ncnnc6Oc6ccc(F)cc6-c6nnc(C)cc6C6CC6)C5)C4)C3)C[C@@H]21 [Compound 403],0.59 nM,230 nM,,,

# Further lines, with some results ahead:
IC50 [2],"IC50 ([3]; Homo sapiens, MOLM-14, 192 h)",IC50 [3],SMILES,"IC50 ([1]; Homo sapiens, 192 h)",IC50 [1]
0.1 nM,4 nM,,CC(C)[C@H]([C@H]1C[C@@H](N2CC(O)C3(CC3)C2)C1)N1CC2(CCN(c3ncnnc3Oc3ccc(F)cc3-c3cncnc3C3CC3)C2)C1 (mixture of isomers) [Compound 42],2.12 µM,
0.1 nM,42 nM,,CC(C)[C@H]([C@H]1C[C@H](N2CC(O)C3(CC3)C2)C1)N1CC2(CCN(c3ncnnc3Oc3ccc(F)cc3-c3cncnc3C3CC3)C2)C1 (mixture of isomers) [Compound 43],9.96 µM,
0.1 nM,41 nM,,CC(C)[C@H]([C@H]1C[C@H](N2CC(O)C3(CCC3)C2)C1)N1CC2(CCN(c3ncnnc3Oc3ccc(F)cc3-c3cncnc3C3CC3)C2)C1 (mixture of isomers) [Compound 213],3.91 µM,
0.2 nM,22 nM,,"CC(=O)N[C@H]1C[C@@H]([C@@H](C(C)C)N2CC3(CCN(c4ncnnc4Oc4ccc(F)cc4-c4cncnc4C4CC4)C3)C2)C1 (single isomer, unassigned) [Compound 2a]",7 µM,
,57 nM,,"CC(C)[C@H]([C@H]1C[C@H](N2CCC(C)(C(=O)N(C)C)CC2)C1)N1CC2(CCN(c3ncnnc3Oc3ccc(F)cc3-c3cncnc3C3CC3)C2)C1 (single isomer, unassigned) [Compound 63]",> 15 µM,
,2 nM,,CC(C)[C@H]([C@H]1C[C@@H](N2CC[C@](C)(O)C2)C1)N1CC2(CCN(c3ncnnc3Oc3ccc(F)cc3-c3cncnc3C3CC3)C2)C1 [Compound 12],> 15 µM,
,3 nM,,CC(C)C([C@H]1C[C@@H](N2C[C@H]3COC[C@H]3C2)C1)N1CC2(CCN(c3ncnnc3Oc3ccc(F)cc3-c3cnc(C#N)nc3C3CC3)C2)C1 (stereo partly drawn) [Compound 166],1.53 µM,
0.11 nM,2 nM,,Cc1ncc(-c2cc(F)ccc2Oc2nncnc2N2CCC3(C2)CN([C@@H](C(C)C)[C@H]2C[C@@H](N4CC5(CN(C(=O)C6CC6)C5)C4)C2)C3)c(C2CC2)n1 [Compound 392],,
0.13 nM,< 1.8 nM,,CNC(=O)[C@H]1CCN([C@H]2C[C@@H]([C@H](C(C)C)N3CC4(CCN(c5ncnnc5Oc5ccc(F)cc5-c5cnc(C)nc5C5CC5)C4)C3)C2)C1 [Compound 393],,
0.083 nM,3 nM,,CC(=O)N1CC2(C1)CN([C@H]1C[C@@H]([C@H](C(C)C)N3CC4(CCN(c5ncnnc5Oc5ccc(F)cc5-c5cnc(C)nc5C5CC5)C4)C3)C1)C2 [Compound 394],,
0.059 nM,< 1.8 nM,,Cc1ncc(-c2cc(F)ccc2Oc2nncnc2N2CCC3(C2)CN([C@@H](C(C)C)[C@H]2C[C@@H](N4C[C@H]5COC[C@H]5C4)C2)C3)c(C2CC2)n1 [Compound 396],,
0.144 nM,6.4 nM,,CO[C@H]1CCN([C@H]2C[C@@H]([C@H](C(C)C)N3CC4(CCN(c5ncnnc5Oc5ccc(F)cc5-c5nnc(C)cc5C5CC5)C4)C3)C2)C1 [Compound 398],,
0.17 nM,9 nM,,CO[C@H]1[C@@H]2CN([C@H]3C[C@@H]([C@H](C(C)C)N4CC5(CCN(c6ncnnc6Oc6ccc(F)cc6-c6nnc(C)cc6C6CC6)C5)C4)C3)C[C@@H]21 [Compound 402],,
0.11 nM,< 1.8 nM,,CC(=O)Nc1cc(NC2CC(C(C(C)C)N3CC4(CCN(c5ncnnc5Oc5ccc(F)cc5-c5cncnc5C5CC5)C4)C3)C2)ccn1 (stereo not drawn) [Compound 407],,
